Results on 1 compound are retold here after patent US20190382346A1, “(NITRO-PHENYL)-NITROPYRIDINE COMPOUNDS FOR TREATING SYNUCLEINOPATHIES” (UNIVERSITAT AUTONOMA DE BARCELONA, priority 2017, published 2019).

The structures appear in SMILES notation.

In general, CC50 refers to the concentration at which the toxic effect on the cells reaches its halfway point. A lower CC50 goes with harm at low concentration.

Series [1] addresses T1, human wild-type α-synuclein (Homo sapiens, UniProt P37840).
T1 construct: made in house; host or cells: E. coli BL21 (DE3)
The series can be described thus: α-synuclein aggregation and thioflavin-T assay. The class given is biochemical. As for the experimental part: (§1) Previously lyophilized α-synuclein was carefully dissolved in PBS buffer to a final concentration of 210 μM and filtered through a Millipore s 0.22-μm filter. α-synuclein aggregation assay was performed in a 96 wells plate (non-treated, black plastic) containing in each well a Teflon polyball (3.175 mm in diameter), 40 μM thioflavin-T, 70 μM α-synuclein, 100 μM of the tested compound and PBS up to a final volume of 150 μL. Plates were fixed into an orbital culture shaker Max-Q 4000 Thermo Scientific to keep the incubation at 37° C., 100 rpm. Every 2 hours, the fluorescence intensity was measured using a Victor3.0 Multilabel Reader by exciting the mixtures with 430-450 filter and collecting the emission intensity with 480-510 filter (triplicates for each measurement). Each plate contained 3 α-synuclein controls in the absence of any compound. The averaged Th-T fluorescence obtained for these wells at the end of the experiment was normalized to 1 and the kinetic curves in the different wells re-scaled accordingly. Re-scaled curves were used to compare the controls with the effect of the tested compound and to ensure that the controls were reproducible between different experiments. For the titration assay, different concentrations of tested compound (200, 150, 100, 75 and 25 μM) were used. For the scattering assay, 70 μM α-synuclein, 100 μM of the tested compound or DMSO (in control samples) and PBS up to a final volume of 1 mL were incubated in low-binding plastic tubes (Protein LoBind Tube 1.5 mL, Eppendorf) using a thermomixer (Thermomixer comfort, Eppendorf) at 37° C. and 600 rpm. After 2 weeks, scattering of the samples was analyzed at 300 nm and 340 nm using a Varian fluorimeter.
Each sample was tested in triplicate. Each plate contained an also triplicated control without tested compound.
In the aggregation assay described above, α-synuclein aggregates within approximately 24 h with a sigmoidal aggregation curve.

The target of another series is T2, α-synuclein fibrils (Homo sapiens, UniProt P37840).
T2 construct: made in house; host or cells: E. coli BL21 (DE3)
The series can be described thus: Transmission Electron Microscopy of α-synuclein fibrils at end of aggregation reaction. Format: biochemical. The following applies: end of the aggregation reaction. As for the experimental part:
α-synuclein fibers from final point reaction (either in absence or presence of the final concentration inhibitors) were collected in Eppendorfs. After diluting the aggregated α-synuclein to a concentration of 10 μM α-synuclein, each sample was sonicated for 10 minutes. 5 μL of these samples were placed on carbon-coated copper grids and allowed to stand for 5 minutes. Then, samples were carefully dried with filter paper to remove the excess of sample. Grids were washed twice with MiliQ water by immersion and stained by incubating grids with 5 μL 2% (w/v) uranyl acetate for 2 minutes for the negative staining. After removal of the uranyl acetate excess with filter paper, grids were let to air-dry for 10 minutes. The samples were imaged using a Jeol 1400 Transmission Electron Microscopy operating at an accelerating voltage of 120 kV. 30 fields were screened at least, to obtain representative images.

Series [2] has as its target T1, human wild-type α-synuclein. The series can be described thus: α-synuclein aggregation scattering assay. Format: biochemical. Conditions: 100 μM compound, 70 μM α-synuclein, 2 weeks, 37° C., 600 rpm. As for the experimental part:
as §1, with “For the titration assay, different concentrations of tested compound (200, 150, 100, 75 and 25 μM) were used. For the scattering assay, 70 μM α-synuclein, 100 μM of the tested compound or DMSO (in control samples) and PBS up to a final volume of 1 mL were incubated in low-binding plastic tubes (Protein LoBind Tube 1.5 mL, Eppendorf) using a thermomixer (Thermomixer comfort, Eppendorf) at 37° C. and 600 rpm.” left out, “fluorimeter. […]” for “fluorimeter.”

In series [3] the test system is human wild-type α-synuclein fused to yellow fluorescent protein (YFP). The series can be described thus: C. elegans α-synuclein aggregation model. The class given is in vivo. The following applies: 10 μM compound, 5 days from L4 stage, strain NL5901. As for the experimental part: α-synuclein aggregation was assessed using an C. elegans in vivo model described by (Van Ham et al., 2008) and (Muñoz-Lobato et al., 2014).
The nematode strain NL5901, unc-119(ed3) III; [pkls2386 (Punc-54::α-syn::yfp; unc-119(+))] was obtained from the Caenorhabditis elegans Genetic Center (CGC), University of Minnesota, USA. The strain expresses a fusion of human wildtype α-synuclein and yellow fluorescent protein (YFP) in body wall muscle cells. The nematodes were maintained using standard procedures, grown in NGM agar plates and fed with E coli (OP50 strain). Adult worms were bleached to get synchronized nematode cultures. NGM-agar plates with a) DMSO only (vehicle) and b) 10 μM final concentration of the tested compound were prepared. Afterwards, OP50 containing a) or b) was added to NGM plates and let dry for 24 h. […] After 5 days of development (L4+5) the numbers of α-synuclein aggregates were determined using a fluorescence microscope. […] The same section in each animal was analyzed and captured in stacks to include aggregates contained from the top to the bottom of each animal ([…], 25 stacks). Image analysis was performed using ImageJ software, from the Z MAX acquisition, quantifying the number of α-synuclein-YFP aggregates. Final quantification and statistics was performed by the Graph Pad Prism 6.0 software, comparing vehicle-treated worms with drug-treated animals. […]

For series [4], the target named is T3, human A30P mutant α-synuclein (Homo sapiens, UniProt P37840, A30P).
T3 construct: made in house; host or cells: E. coli BL21 (DE3)
The series can be described thus: thioflavin-T aggregation assay, A30P mutant. Conditions: 100 μM compound, 70 μM α-synuclein, 24 h. The class given is biochemical. As for the experimental part: as §1, with “For the titration assay, different concentrations of tested compound (200, 150, 100, 75 and 25 μM) were used. For the scattering assay, 70 μM α-synuclein, 100 μM of the tested compound or DMSO (in control samples) and PBS up to a final volume of 1 mL were incubated in low-binding plastic tubes (Protein LoBind Tube 1.5 mL, Eppendorf) using a thermomixer (Thermomixer comfort, Eppendorf) at 37° C. and 600 rpm.” left out, “fluorimeter. […] Every 2 hours, the thioflavin-T fluorescence intensity was measured as described above.” for “fluorimeter.”

A further series in a line: in vitro. The class given is cell-based. Conditions: human. As for the experimental part:
Cultured cells of human neuroblastoma cell line SH-SY5Y were incubated for 72 h with either the vehicle (DMSO) or with different concentrations of the compound. Then, the cells were incubated with a cell viability indicator (PrestoBlue® Cell Viability Reagent). The modification of PrestoBlue® Cell Viability Reagent by the reducing environment of viable cells turns the dye red in color becoming highly fluorescent. This color change can be detected measuring fluorescence by exciting at 531 nm and detecting emission at 615 nm. The CC50 of compound D (concentration that caused death in 50% of the cells, i.e. reduction to 50% viability) was >700 μM (FIG. 6).

Series [5] addresses T4, human H50Q mutant α-synuclein (Homo sapiens, UniProt P37840, H50Q).
T4 construct: made in house; host or cells: E. coli BL21 (DE3)
Kind of series: thioflavin-T aggregation assay, H50Q mutant. The class given is biochemical. Conditions: 100 μM compound, 70 μM α-synuclein, 24 h. How it is done: as §1, with “For the titration assay, different concentrations of tested compound (200, 150, 100, 75 and 25 μM) were used. For the scattering assay, 70 μM α-synuclein, 100 μM of the tested compound or DMSO (in control samples) and PBS up to a final volume of 1 mL were incubated in low-binding plastic tubes (Protein LoBind Tube 1.5 mL, Eppendorf) using a thermomixer (Thermomixer comfort, Eppendorf) at 37° C. and 600 rpm.” left out, “fluorimeter. […] Every 2 hours, the thioflavin-T fluorescence intensity was measured as described above.” for “fluorimeter.”

Setting [6] is: 70 μM α-synuclein, 100 μM compound, 37° C.

Take `N#Cc1c(O)nc(-c2cccc([N+](=O)[O-])c2)c([N+](=O)[O-])c1C(F)(F)F` [compound D, 2-hydroxy-5-nitro-6-(3-nitrophenyl)-4-(trifluoromethyl)nicotinonitrile]: in series [1] (setting [6]), the “delay of halftime of aggregation relative to the control” value came to 3 h and the “inhibition of α-synuclein aggregation at the end of the aggregation reaction relative to the control (thioflavin-T fluorescence)” value was 32.4%. The “anti-aggregation activity in titration assays” value in series [1] (200, 150, 100, 75 and 25 μM compound, 70 μM α-synuclein) is given as “clear dose-dependent anti-aggregation activity”. Moreover, in series [1] (fitted aggregation curves), the “k1 (nucleation rate constant), Finke-Watzky two-step model” value is “decreased” and the “k2 (growth rate constant), Finke-Watzky two-step model” value is “decreased”. In addition, the “activity at sub-stoichiometric protein:compound ratios” value in series [1] (titration assay, 70 μM α-synuclein) was “showed activity”. The “number and size of α-synuclein fibrils compared to control (TEM)” value on α-synuclein fibrils was “significant decrease in both number and size of α-synuclein fibrils”. Besides, the “inhibition of human wild-type α-synuclein aggregation (scattering at 300 nm and 340 nm)” value in series [2] was “inhibits”. Also, the “α-synuclein-YFP protein inclusions in muscle cells of the worms” value in series [3] is “significantly decreased”. Further, the “inhibition of human A30P mutant α-synuclein aggregation (thioflavin-T fluorescence)” value in series [4] was “inhibits”. In “in vitro”, this compound had a CC50 at 72 h greater than 700 µM. For the same compound, the “inhibition of human H50Q mutant α-synuclein aggregation (thioflavin-T fluorescence)” value in series [5] is “inhibits”.
